Test results reported in patent publication EP2929883A1, “Pyrazole derivatives as dihydroorotate dehydrogenase (DHODH) inhibitors” (INSTITUT PASTEUR, priority 2014, dated 2015).
pIC50: −log10 of the molar value. Converted amounts (≈) assume the structure as drawn.

test system: measles virus; experiment: microbe, parasite or virus in culture; details: Measles morbillivirus, 24 h

How did the MIC50 turn out when `CCOc1nn(-c2ccccn2)c2c1CCN(Cc1ccccc1)C2` [example 1, 6-benzyl-3-ethoxy-1-(pyridin-2-yl)-4,5,6,7-tetrahydro-1H-pyrazolo[3,4-c]pyridine] was run?
Its MIC50 is over 5 µM.

Which MIC50 does the source give for `CCOc1cc(Cc2ccccc2)n(-c2ncc(CC)cn2)n1` [example 2, 2-(5-benzyl-3-ethoxy-1H-pyrazol-1-yl)-5-ethylpyrimidine] here?
Its MIC50 is over 5 µM.

`CCOc1cc(Cc2ccccc2)n(-c2ccccn2)n1` [example 3, 2-(5-benzyl-3-ethoxy-1H-pyrazol-1-yl)pyridine] was tested. Which MIC50 did it give?
Its MIC50 is over 5 µM.

How did the MIC50 turn out when `Cc1c(Oc2c(F)cccc2F)c(OC(C)C)nn1-c1ccccn1` [example 4, 2-(4-(2,6-difluorophenoxy)-3-isopropoxy-5-methyl-1H-pyrazol-1-yl)pyridine] was run?
Its MIC50 is over 5 µM.

With `CCc1cnc(-n2nc(OC(C)C)c(Oc3c(F)cccc3F)c2C)c(F)c1` [example 5A, 2-(4-(2,6-difluorophenoxy)-3-isopropoxy-5-methyl-1H-pyrazol-1-yl)-5-ethyl-3-fluoropyridine] as the compound, how does the MIC50 read?
Its MIC50 is 0.05 to 0.5 µM (≈ 0.0196 to 0.196 µg/mL).

`CCCc1cnc(-n2nc(OC(C)C)c(Oc3c(F)cccc3F)c2C)nc1` [example 6, 2-(4-(2,6-difluorophenoxy)-3-isopropoxy-5-methyl-1H-pyrazol-1-yl)-5-propylpyrimidine] was tested. Which MIC50 did it give?
The MIC50 was 0.0005 to 0.05 µM (≈ 0.000194 to 0.0194 µg/mL).

How did the MIC50 turn out when `Cc1c(Oc2c(F)cccc2F)c(OC(C)C)nn1-c1ccc(C2CC2)nn1` [example 7, 3-cyclopropyl-6-(4-(2,6-difluorophenoxy)-3-isopropoxy-5-methyl-1H-pyrazol-1-yl)pyridazine] was run?
The MIC50 was 0.0005 to 0.05 µM (≈ 0.000193 to 0.0193 µg/mL).

For `Cc1c(Oc2c(F)cccc2F)c(OC(C)C)nn1-c1ccc(C2CC2)cn1` [example 9, 5-cyclopropyl-2-(4-(2,6-difluorophenoxy)-3-isopropoxy-5-methyl-1H-pyrazol-1-yl)pyridine], which MIC50 is on record?
The MIC50 was 0.0005 to 0.05 µM (≈ 0.000193 to 0.0193 µg/mL).

With `Cc1ccc(-n2nc(OC(C)C)c(Oc3c(F)cccc3F)c2C)nc1` [example 9A, 2-(4-(2,6-difluorophenoxy)-3-isopropoxy-5-methyl-1H-pyrazol-1-yl)-5-methylpyridine] as the compound, how does the MIC50 read?
The MIC50 was 0.0005 to 0.05 µM (≈ 0.00018 to 0.018 µg/mL).

With `CCc1ccc(-n2nc(OC(C)C)c(Oc3c(F)cccc3F)c2C)nc1` [example 9B, 2-(4-(2,6-difluorophenoxy)-3-isopropoxy-5-methyl-1H-pyrazol-1-yl)-5-ethylpyridine] as the compound, how does the MIC50 read?
Its MIC50 is 0.05 to 0.5 µM (≈ 0.0187 to 0.187 µg/mL).

How did the MIC50 turn out when `CCc1cnc(-n2nc(OC(C)C)c(Cc3cccc(F)c3)c2C)nc1` [example 11, 5-ethyl-2-(4-(3-fluorobenzyl)-3-isopropoxy-5-methyl-1H-pyrazol-1-yl)pyrimidine] was run?
Its MIC50 is 0.0005 to 0.05 µM (≈ 0.000177 to 0.0177 µg/mL).

For `Cc1ccc(-n2nc(OC(C)C)c(Oc3c(F)cccc3F)c2C)nn1` [example 12, 3-(4-(2,6-difluorophenoxy)-3-isopropoxy-5-methyl-1H-pyrazol-1-yl)-6-methylpyridazine], which MIC50 is on record?
Its MIC50 is 0.0005 to 0.05 µM (≈ 0.00018 to 0.018 µg/mL).

How did the MIC50 turn out when `Cc1c(Oc2c(F)cccc2F)c(OC(C)C)nn1-c1ncc(C2CC2)cn1` [example 13, 5-cyclopropyl-2-(4-(2,6-difluorophenoxy)-3-isopropoxy-5-methyl-1H-pyrazol-1-yl)pyrimidine] was run?
The MIC50 was 0.0005 to 0.05 µM (≈ 0.000193 to 0.0193 µg/mL).

How did the MIC50 turn out when `Cc1c(Oc2c(F)cccc2F)c(OC(C)C)nn1-c1ncc(F)cn1` [example 14, 2-(4-(2,6-difluorophenoxy)-3-isopropoxy-5-methyl-1H-pyrazol-1-yl)-5-fluoropyrimidine] was run?
Its MIC50 is 0.05 to 0.5 µM (≈ 0.0182 to 0.182 µg/mL).

For `Cc1c(Oc2c(F)cccc2F)c(OC(C)C)nn1-c1ccc(Cl)nn1` [example 15, 3-chloro-6-(4-(2,6-difluorophenoxy)-3-isopropoxy-5-methyl-1H-pyrazol-1-yl)pyridazine], which MIC50 is on record?
Its MIC50 is 0.05 to 0.5 µM (≈ 0.019 to 0.19 µg/mL).

With `Cc1c(Oc2cccc(F)c2F)c(OC(C)C)nn1-c1ccc(C2CC2)cn1` [example 16, 5-cyclopropyl-2-(4-(2,3-difluorophenoxy)-3-isopropoxy-5-methyl-1H-pyrazol-1-yl)pyridine] as the compound, how does the MIC50 read?
Its MIC50 is 0.0005 to 0.05 µM (≈ 0.000193 to 0.0193 µg/mL).

How did the MIC50 turn out when `Cc1c(Oc2ccc(F)cc2F)c(OC(C)C)nn1-c1ccc(C2CC2)cn1` [example 17, 5-cyclopropyl-2-(4-(2,4-difluorophenoxy)-3-isopropoxy-5-methyl-1H-pyrazol-1-yl)pyridine] was run?
The MIC50 was 0.05 to 0.5 µM (≈ 0.0193 to 0.193 µg/mL).

same assay, conditions: Measles morbillivirus, HEK-293T, read-out: IC50 on the measles virus

`Cc1c(-c2ccc(-c3ccccc3F)cc2)nc2ccc(F)cc2c1C(=O)O` [brequinar, reference compound] was tested. Which pIC50 did it give?
Its pIC50 is 7.40.
